Patent publication US11517556B2, “Composition for BKCa channel activation” (GWANGJU INSTITUTE OF SCIENCE AND TECHNOLOGY, priority 2016, dated 2022)

Columns and labels:
[1] = target: T1, rat BKCa channel α-subunit (rSlo1) (Rattus norvegicus, UniProt Q62976); assay: Macroscopic current patch-clamp recording, Xenopus oocyte excised patches; assay type: cell-based
T1 construct: expressed in transfected cells; host or cells: Xenopus laevis oocytes injected with cRNA (vector pNBC1.0)
Text: (§1) Xenopus laevis oocytes heterologously expressing a BKCa channel α-subunit (Slo1) were used for electrophysiological recording. Subcloning and functional expression of the rat BKCa channel α-subunit using the oocyte expression vector pNBC1.0 has been reported (Ha et al., 2000). Sequence information of Slo1 used in the present disclosure is published in GenBank as expression number AF135265. Plasmid DNA was linearized using Notl restriction enzyme, and complementary RNA (cRNA) was synthesized using T7 RNA polymerase in the presence of nucleoside triphosphate and cap analog m7G(5′)ppp(5′)G from a linear form of DNA using mMessage Machine (Ambion).
(§2) Oocytes from stages V to VI were surgically removed from ovarian lobes of anesthetized X. laevis (Xenopus I, Dexter, Mich.). The removed oocytes were transferred to a Ca^2+-free oocyte ringer's (OR) culture medium (86 mM NaCl, 1.5 mM KCl, 2 mM MgCl2 and 10 mM HEPES, pH 7.6). The oocytes were cultured in Ca^2+-free OR medium containing 3 mg/ml collagenase (Worthington Biochemicals) for 1 hour and 30 minutes to 2 hours. This removed the follicular cell layer of the oocyte. Then, the oocytes were widely washed with Ca^2+-free OR culture medium and ND-96 medium (96 mM NaCl, 2 mM KCl, 1.8 mM CaCl2, 1 mM MgCl2, 5 mM HEPES, and 50 µg/ml gentamycin, pH 7.6). The washed oocytes were stored at 18° C. in ND-96 medium. Before oocyte was used, the oocyte was stabilized for at least one day. After the stabilization, approximately 50 ng of synthesized cRNA in 50 nl of nuclease-free water was injected into each oocyte for macroscopic current recording, and approximately 1 ng of synthesized cRNA in 50 nl of nuclease-free water was injected into each oocyte for single-channel recording using a micro-dispenser (Drummond Scientific, Broomall, Pa.). The cRNA-injected oocytes were cultured in ND-96 medium for 1 to 3 days at 18 degree C. Immediately prior to the patch-clamp experiment, the oocyte's vitelline membrane was manually removed with fine forceps.
[…] Patch pipettes were prepared from borosilicate and glass (WPI, Sarasota, Fla.). The pipettes were fire-polished with a resistance of 2 to 4 MΩ for patch recording. For single-channel recording, the patch pipettes were fire-polished with 4 to 8 MΩ resistors. To reduce electrical noise, the pipettes were coated with beeswax. Using an Axopatch 200B amplifier (Axon Instruments), the channel current was amplified. Then, the current was low-pass filtered at 1 kHz using a four-pole Bessel filter. Then, the current was digitized at a rate of 10 points/ms using a Digidata 1200A (Axon Instruments).
A single BKCa channel was readily activated by a membrane potential simply transferred at 100 mV at a high concentration of intracellular Ca^2+. For the single-channel assay, the switching between the closed and open conditions was determined by setting a potency at a half of a unitary current amplitude. To determine the single-channel conductance of the expressed channel, the average amplitude of the channel current was obtained from the histograms fitted with Gaussian distributions. An average current for a membrane-pass voltage is shown. A slope-conductance values were obtained from linear regression. The macroscopic current of the expressed BKCa channel was activated by a voltage-clamp pulse delivered from a holding potential of −100 mV at 10 mV increment to a membrane potential of typically −80 to 200 mV, A dwell-time of recorded open and close events for the single BKCa channel was analyzed using a linear histogram method. The dwell-time distribution was fitted into a single index using simplex-least-squares fitting methods (Clampfit, Axon Instruments). A peak in the dwell-time distribution was located at a time-constant of an exponential component.
To prevent activation of endogenous calcium-activated chloride channels, solutions for single and macroscopic channel recording contained gluconate as a non-permeant negative ion. […]

[2] = target: T1, rat BKCa channel α-subunit (rSlo1); assay: Single-channel patch-clamp recording, outside-out patches of Xenopus oocytes; assay type: cell-based; settings: 5 μM
Text: as §1
as §2, with “forceps. […]” for “forceps.”
A single BKCa channel was readily activated by a membrane potential simply transferred at 100 mV at a high concentration of intracellular Ca^2+. For the single-channel assay, the switching between the closed and open conditions was determined by setting a potency at a half of a unitary current amplitude. […] The macroscopic current of the expressed BKCa channel was activated by a voltage-clamp pulse delivered from a holding potential of −100 mV at 10 mV increment to a membrane potential of typically −80 to 200 mV, A dwell-time of recorded open and close events for the single BKCa channel was analyzed using a linear histogram method. […]

[3] = system: spontaneous hypertensive rats (SHR); assay: Voiding behavior of spontaneous hypertensive rats (SHR); assay type: in vivo, rat
Procedure: The voiding frequency was monitored for 3 hours. FIG. 9B represents a total number of voidings. Each symbol or bar represents average±SEM of 5 (WKY) or 7 (SHR) animals (*** P<0.001).
The cumulative voiding frequency is shown in FIG. 9A for WKY and SHR orally administered with kurarinone. The administration of kurarinone may allow distinct differences in voiding frequency to be evident between WKY and SHR. […] In the WKY control rat, the decrease of the voiding frequency was not observed.

[4] = 5 μM, outside-out, 3 μM intracellular Ca2+, double-exponential fit
[5] = after removal of 5 μM kurarinone, outside-out

T1 sequence (Q62976 whole entry): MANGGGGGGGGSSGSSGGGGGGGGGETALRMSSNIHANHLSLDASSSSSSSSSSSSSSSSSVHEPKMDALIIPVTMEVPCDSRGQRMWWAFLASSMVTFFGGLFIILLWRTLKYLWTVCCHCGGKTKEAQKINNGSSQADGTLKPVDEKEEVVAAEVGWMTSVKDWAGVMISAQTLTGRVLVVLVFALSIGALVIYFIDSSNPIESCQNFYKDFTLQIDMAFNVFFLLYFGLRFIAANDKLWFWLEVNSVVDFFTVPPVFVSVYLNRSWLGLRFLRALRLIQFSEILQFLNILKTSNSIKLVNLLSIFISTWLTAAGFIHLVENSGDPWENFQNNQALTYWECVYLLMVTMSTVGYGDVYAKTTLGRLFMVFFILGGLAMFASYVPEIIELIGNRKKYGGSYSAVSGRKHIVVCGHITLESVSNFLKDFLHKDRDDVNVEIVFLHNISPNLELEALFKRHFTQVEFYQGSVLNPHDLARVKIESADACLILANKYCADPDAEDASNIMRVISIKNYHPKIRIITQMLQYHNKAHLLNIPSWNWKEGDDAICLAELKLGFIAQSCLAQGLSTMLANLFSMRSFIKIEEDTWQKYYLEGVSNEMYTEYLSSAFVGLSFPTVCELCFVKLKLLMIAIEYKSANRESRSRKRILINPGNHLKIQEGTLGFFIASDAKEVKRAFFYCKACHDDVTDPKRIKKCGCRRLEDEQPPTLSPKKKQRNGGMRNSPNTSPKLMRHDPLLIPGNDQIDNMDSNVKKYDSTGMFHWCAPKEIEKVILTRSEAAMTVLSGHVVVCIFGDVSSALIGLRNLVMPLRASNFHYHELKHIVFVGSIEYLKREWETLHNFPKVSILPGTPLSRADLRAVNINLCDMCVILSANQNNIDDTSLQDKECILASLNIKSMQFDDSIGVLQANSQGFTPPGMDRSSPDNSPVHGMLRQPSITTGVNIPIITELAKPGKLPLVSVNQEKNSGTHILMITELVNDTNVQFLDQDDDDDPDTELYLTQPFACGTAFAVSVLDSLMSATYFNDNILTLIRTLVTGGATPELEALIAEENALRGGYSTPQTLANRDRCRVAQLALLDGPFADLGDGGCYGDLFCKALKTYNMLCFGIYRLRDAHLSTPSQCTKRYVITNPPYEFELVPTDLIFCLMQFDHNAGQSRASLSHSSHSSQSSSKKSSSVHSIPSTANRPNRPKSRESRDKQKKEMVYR

activation time-constant (τactivation) ([1]; 0, 5, 10, 20 μM): not significantly increased
effect on tail-current ([1]; 5 μM on the extracellular surface, outside-out patch, 3 μM intracellular Ca2+): strongly potentiates the tail-current
association time-constant, fast phase (τfast) of potentiation [1, 4]: 1.47 ± 0.34 s
association time-constant, low-speed phase (τslow) of potentiation [1, 4]: 64.9 ± 8.8 s
maximum conductance relative to vehicle control ([1]; 20 μM): 1.8 times
shift of V1/2 in the negative direction ([1]; 20 μM vs vehicle): approximately 80 mV
half-active voltage (V1/2) of G-V relationship ([1]; 20 μM, 3 μM [Ca2+]i, vehicle 107.4±2.2 mV): 27.7±3.0 mV
maximum conductance (G/Gmax) ([1]; 20 μM, normalized to vehicle maximum): 1.35
dissociation time-constant, fast phase of de-potentiation [1, 5]: 2.78 ± 0.95 s
dissociation time-constant, slow phase of de-potentiation [1, 5]: 90.06 ± 12.21 s
change in BKCa channel current on treatment from the inside of the cell ([1]; excised inside-out patch recording): no significant change
deactivation rate ([1]; increasing concentrations up to 20 μM, voltage-dependent): dramatically decreased
half-activation voltage (V1/2) of single-channel open-probability ([2]; 10 μM intracellular Ca2+, control 68.7±3.7 mV): 43.7±2.1 mV
single-channel conductance ([2]; 10 μM intracellular Ca2+, control 221.1±16.4): 238.3±8.7 pS
average opening-time of single channel ([2]; 50 mV, 2.98+/−0.34 ms in absence): 5.77 ± 0.90 ms
average closing time of single channel ([2]; 50 mV, 3.69±0.80 ms in absence): 3.60 ± 4.1 ms
SMILES: C=C(C)[C@H](CC=C(C)C)Cc1c(O)cc(OC)c2c1O[C@H](c1ccc(O)cc1O)CC2=O [kurarinone]
total voiding frequency for 3 hours ([3]; 5 mg/kg, vehicle 10.9±1.4): 6.9±0.8
effect on voiding frequency ([3]; 0.5 and 5 mg/kg): reduced the voiding frequency for SHR in a dose-dependent manner
